Several values for one entry are separate records, joined by “and”; a condition that tells them apart may be missing. Equal entries are not always repeated.
Key:
[1] = biological target: AMP-activated protein kinase, AMPK; experiment: AMP-dependent Kinase enzyme assay. An in vitro enzyme assay that detects ADP turnover that is directly proportional to AMPK activity. This uses naive AMPK that is activated during the assay with MK-8722; assay type: functional, Homo sapiens
[2] = biological target: Polyketide synthase Pks13 (Mycobacterium tuberculosis (strain ATCC 25618 / H37Rv), UniProt I6X8D2); experiment: Mycobacterium tuberculosis Polyketide synthase 13 Thioesterase (PKS13); assay type: functional
Schistosoma mansoni = experiment: High throughput screening of compounds against Schistosoma mansoni motility; assay type: functional; parameters: dose or concentration left out as unconfirmed
Histidine--tRNA ligase [3] = biological target: T1, Histidine--tRNA ligase (Leishmania infantum, UniProt A4I591); experiment: Leishmania infantum Histidine tRNA synthetase (LdHisRS); assay type: functional
T1 sequence (A4I591 whole entry): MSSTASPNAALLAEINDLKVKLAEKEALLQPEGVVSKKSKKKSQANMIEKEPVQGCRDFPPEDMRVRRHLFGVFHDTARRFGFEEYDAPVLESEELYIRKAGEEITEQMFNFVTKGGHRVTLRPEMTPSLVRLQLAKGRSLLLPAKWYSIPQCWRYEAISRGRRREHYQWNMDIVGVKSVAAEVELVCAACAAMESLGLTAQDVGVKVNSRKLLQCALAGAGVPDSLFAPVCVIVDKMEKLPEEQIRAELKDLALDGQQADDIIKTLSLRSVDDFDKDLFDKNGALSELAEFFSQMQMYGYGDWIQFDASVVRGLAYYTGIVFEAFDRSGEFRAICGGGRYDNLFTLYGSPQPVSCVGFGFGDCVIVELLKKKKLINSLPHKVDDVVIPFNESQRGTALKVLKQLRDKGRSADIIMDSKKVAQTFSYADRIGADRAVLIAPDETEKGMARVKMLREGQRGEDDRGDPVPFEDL

Leishmania donovani = experiment: Leishmania intramacrophage assay; assay type: functional, organism-based; settings: Leishmania donovani
[4] = microbe, parasite or virus in culture; settings: Mycobacterium tuberculosis, 72 h, read-out: pIC50 (converted)
[5] = In vitro enzyme assay to detect hydrolysis of chlorophenol red-beta-D-[…] directly proportional to the number of Toxoplasma stably expressing beta-galactosidase; assay type: functional, organism-based, Toxoplasma gondii
[6] = microbe, parasite or virus in culture; settings: Mycobacterium tuberculosis, 96 h, read-out: pIC50 (converted)
Histidine--tRNA ligase [7] = biological target: T2, Histidine--tRNA ligase (Trypanosoma cruzi (strain CL Brener), UniProt Q4DA54); experiment: Trypanosoma cruzi histidyl tRNA synthetase (Tc-HisRS); assay type: functional
T2 sequence (Q4DA54 whole entry): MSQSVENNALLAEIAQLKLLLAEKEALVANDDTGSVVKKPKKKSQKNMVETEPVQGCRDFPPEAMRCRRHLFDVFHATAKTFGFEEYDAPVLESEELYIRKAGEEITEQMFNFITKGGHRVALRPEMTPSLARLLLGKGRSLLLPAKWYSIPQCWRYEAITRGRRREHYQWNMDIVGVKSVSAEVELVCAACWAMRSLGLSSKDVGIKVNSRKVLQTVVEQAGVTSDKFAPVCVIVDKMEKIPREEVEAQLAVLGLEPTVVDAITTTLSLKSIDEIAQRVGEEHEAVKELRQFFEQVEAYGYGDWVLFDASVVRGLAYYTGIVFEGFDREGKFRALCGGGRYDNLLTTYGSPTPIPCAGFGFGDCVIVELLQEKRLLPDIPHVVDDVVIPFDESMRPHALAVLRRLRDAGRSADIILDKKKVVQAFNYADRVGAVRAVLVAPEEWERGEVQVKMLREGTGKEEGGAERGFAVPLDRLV

Trypanosoma brucei = experiment: Trypanosoma brucei 72 hour study; assay type: functional, organism-based
ClpP1P2 = ClpP1P2 (Mycobacterium tuberculosis (strain ATCC 25618 / H37Rv), UniProt P9WPC3+P9WPC5); experiment: in vitro assay to detect presence of AMC directly proportional to the activity of ClpP1P2. GHDDI collaboration.; assay type: functional
[8] = biological target: T3, Coenzyme A biosynthesis bifunctional protein CoaBC (Mycobacterium tuberculosis (strain ATCC 25618 / H37Rv), UniProt P9WNZ1); experiment: Biomol Green assay for MtCoaBC inhibitor, OD650 read; assay type: functional
T3 sequence (P9WNZ1 whole entry): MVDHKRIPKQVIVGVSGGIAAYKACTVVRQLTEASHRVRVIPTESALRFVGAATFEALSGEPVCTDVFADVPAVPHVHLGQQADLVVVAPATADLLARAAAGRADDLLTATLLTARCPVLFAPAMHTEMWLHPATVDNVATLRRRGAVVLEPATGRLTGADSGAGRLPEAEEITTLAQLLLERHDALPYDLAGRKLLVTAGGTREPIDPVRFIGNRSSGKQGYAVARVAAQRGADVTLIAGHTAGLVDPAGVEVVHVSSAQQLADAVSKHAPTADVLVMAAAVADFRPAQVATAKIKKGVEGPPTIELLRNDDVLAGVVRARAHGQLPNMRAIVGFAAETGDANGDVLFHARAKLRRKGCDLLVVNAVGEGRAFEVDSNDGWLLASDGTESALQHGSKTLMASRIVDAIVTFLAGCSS

Plasmodium falciparum = experiment: Calibr Malaria Delayed Death Assay SOP; assay type: functional, organism-based; settings: for IC50: Plasmodium falciparum

SMILES | pIC50 [1] | also measured
Cc1cc(-c2cnc(NC3CC3)nc2-c2ccco2)on1 | < 4 and 4.22 | –
Cc1cccc(NC(=O)c2[nH]nc(C(C)C)c2Br)n1 | < 4 | IC50 [2]: > 100 µM
CCCS(=O)(=O)N1CCN(CCCO)CC1 | < 4 | –
O=C(NCC1CC1)C1CN(C(=O)c2cccc(Cl)c2)CC12CCOCC2 (stereo not given) | < 4 | –
CO[C@@H]1CC[C@H]2[C@H]1OCCN2C(=O)c1ccc(C)o1 | < 4 | –
CC1COCCN1Cc1nc(-c2cccs2)no1 (stereo not given) | < 4 | –
CN(C)S(=O)(=O)N1C[C@H](Oc2cccnc2)[C@H]2OCCC[C@H]21.O=C(O)C(F)(F)F | < 4 | –
CCc1nnc2n1CCN(C(=O)c1ccc3nc(C)c(C)nc3c1)C2 | < 4 | Percent Effect (Schistosoma mansoni): -15.27%
c1cc(-c2ccc3c(c2)CCC32CCNCC2)ccn1 | < 4 | IC50 (Histidine--tRNA ligase [3]): > 100 µM
CC(C)OCCCNC(=O)c1ccc(-c2ccco2)[nH]c1=O | < 4 | –
CCc1csc(C2CCCN(C(=O)c3cnn(CC)c3)C2)n1 (stereo not given) | < 4 | –
COc1ccccc1OCc1cc(C(=O)N2CC(O)C2)n[nH]1 | < 4 | Percent Effect (Schistosoma mansoni): -18.55%
CC(C)(C)NC(=O)CNc1ncccn1 | < 4 | –
CC(C)c1cc(NC(=O)c2ccc([S+]([O-])C(C)C)cc2)[nH]n1 (stereo not given) | 5.533 and 5.17 | –
CCc1cc(C)c(C(=O)N2CCCC2CC(=O)c2cnn(C)c2)o1 (stereo not given) | < 4 | –
CC(C)c1cc(NC(=O)c2ccncc2)[nH]n1 | 4.474 and 4.692 | –
Cc1cc(-c2cnc(NC3CC3)nc2-c2ccoc2C)on1 | < 4 | –
CC(C)c1cc(NC(=O)c2cccnc2)[nH]n1 | 4.473 and 4.751 | –
O=C(NCCNc1ccc(C(F)(F)F)cn1)c1cncc(Br)c1 | 4.385 and < 4 | –
CCOCC(O)CN1CCN(C(=O)C2CC2)CC1 (stereo not given) | < 4 | –
Cc1nn(C)c(N2CCOCC2)c1CNC(C)c1ccco1 (stereo not given) | < 4 | Percent Effect (Schistosoma mansoni): -29.3%
CCOc1cc(C)nc(N2CCN(C(=O)CC)CC2)n1 | < 4 | –
FC1(F)CCN(Cc2ccccn2)CC12CCN(c1cccnc1)C2.O=C(O)C(F)(F)F.O=C(O)C(F)(F)F.O=C(O)C(F)(F)F (stereo not given) | < 4 | IC50 (Leishmania donovani): > 50.1 µM
Cc1ccsc1C(=O)N1CC(C(=O)NCC2CC2)C2(CCOCC2)C1 (stereo not given) | < 4 | –
CN1CCC(c2n[nH]c(=O)n2-c2cccc(Cl)c2)CC1 | < 4 | –

SMILES | pIC50 [1] | also measured
CCn1ncc(-c2cc(C(F)(F)F)nc(N3CCC(N)CC3)n2)c1C | – | IC50 (Leishmania donovani): 11.9 µM; IC50 [4]: > 50.1 µM; pIC50 [5]: 5.222 and 5.563; IC50 [6]: > 50.1 µM; IC50 (Histidine--tRNA ligase [7]): > 100 µM; pIC50 (Trypanosoma brucei): 5.225 and 5.224; IC50 (Trypanosoma brucei; Trypanosoma brucei, 72 h): 5.74 µM
COc1cc(C(=O)N2CCCC(CNS(C)(=O)=O)C2)cc(OC)c1C (stereo not given) | < 4 | –
CCOc1cccc2c1OCC(C(=O)NS(=O)(=O)c1ccc(Cl)cc1)=C2 | < 4 | –
Cl.Cl.c1cc(COC[C@@H]2CCC[C@@]23CNCCO3)ccn1 | < 4 | –
CN(C)S(=O)(=O)NC1CCCc2c1cnn2-c1ccc(C(C)(C)C)cc1 (stereo not given) | < 4 | –
CNC(=O)c1cccc(NC(=O)Cn2nc(-c3cccs3)oc2=O)c1 | < 4 | –
c1cc(-c2ccc3c(c2)C2(CCNCC2)CC3)ccn1 | < 4 | –
CC(C)COc1cncc(N2CCCN(c3ncccn3)CC2)n1 | < 4 | –
Cn1cnc(S(=O)(=O)N2C[C@@H]3CC[C@H](C2)N(Cc2ccccn2)C3)c1 | < 4 | –
Cn1ncc2c(NC3CCC3)nc(-c3ccncc3)nc21 | < 4 | –
Cc1ccc(NC(=O)c2cc(S(=O)(=O)N3CCCCC3)c[nH]2)cc1F | < 4 | –
Cc1nc(C)n(CC2CCCN(c3ncnc4[nH]ccc34)C2)n1 (stereo not given) | 4.827 [middle of 4 runs] | –
Cc1nc(N2CCN(C)CC2)ncc1C(=O)N1CCC(O)(CO)CC1 | < 4 | –
c1cncc(-c2ccc3c(c2)C2(CCNCC2)CC3)c1 | < 4 | –
CCNC(=O)c1nnc2ccc(N3CCOCC3)cc2n1 | < 4 | –
CC(C)c1cc(C(=O)NCCc2nc(-c3cccnc3)n[nH]2)[nH]n1 | 4.471 and 4.569 and 4.528 and 4.581 | –
COc1cc(CNC2CCCc3c2cnn3C)cc(OC)c1.Cl (stereo not given) | < 4 | –
Cc1cccc(-c2nc(CN3CCc4cnc(C)nc4C3)no2)c1 | < 4 | –
Cc1occc1-c1nc(NC2CCCC2)ncc1-c1ccccn1 | < 4 | –
CC(C)NC(=O)N1CC[C@@H]2CN(Cc3ccccc3)S(=O)(=O)[C@@H]2CC1 | < 4 | –
O=C(CN1CC(n2cccn2)C1)NCCc1c[nH]c2ccccc12 | < 4 | –
CCc1cc(NCCc2ccc(O)cc2)n2nccc2n1 | 4.438 and 4.726 | Percent Effect (Schistosoma mansoni): -42.86%
Cc1cc(-c2cnc(NC3CC3)nc2-c2ccoc2)on1 | < 4 | –
CCS(=O)(=O)CC(=O)NC(c1ccc(F)cc1)C1CCCC1 (stereo not given) | < 4 | –
COc1ccc(CC2(CO)CCN(c3cc(C#N)ccn3)CC2)cc1 | < 4 | IC50 (ClpP1P2): > 100 µM

SMILES | pIC50 [1] | also measured
NCC1Cc2cccc(-c3ccc(O)c(F)c3)c2O1 (stereo not given) | 4.898 and 4.913 | –
CN(C)c1nc2sc(C(=O)N3CCN(C(=O)OC(C)(C)C)CC3)cc2s1 | < 4 | –
CCn1cc(NC(=O)NCCN2CCCCCC2=O)cn1 | < 4 | –
CN(C)C(=O)Cc1nc(CN2CCCCC2Cn2cccn2)cs1 (stereo not given) | < 4 | –
Cc1nc(N)nc(C)c1CC(=O)N1CCC2(CC1)OCCCC2O (stereo not given) | < 4 | IC50 [8]: > 30.2 µM
CC(C)c1n[nH]c(C(=O)Nc2ccccn2)c1Br | < 4 | pIC50 (Plasmodium falciparum): 6.515; IC50 (Plasmodium falciparum): 0.24 µM
Cc1ccc2c(n1)N(C)CCN(C(=O)NC1CC1)C2.O=C(O)C(F)(F)F | < 4 | –
CNc1nc(C(=O)N2CCCC(COc3ccc(F)cc3)C2)cs1 (stereo not given) | < 4 | –
COc1cc(-c2cccc3c2OC(CN)C3)ccc1O (stereo not given) | 4.656 and 4.577 | –
Cc1cnn(CC2CN(Cc3nnc(C4CC4)o3)CCO2)c1 (stereo not given) | < 4 | –
C[C@H]1C[C@@H]2CCN(Cc3ccccn3)C[C@H]2O1 | < 4 | –
Cl.Cl.c1ccc(OC[C@@H]2CCC[C@@]23CNCCO3)nc1 | < 4 | –
CC(CN1CCN(C)CC1)NC(=O)c1cc(Cl)c2c(c1)OCO2 (stereo not given) | < 4 | Percent Effect (Schistosoma mansoni): -52.41%
CC(C)c1n[nH]c(C(=O)NC(C)c2ccncc2)c1Br (stereo not given) | < 4 | IC50 [8]: > 30.2 µM
O=C1CN(C(=O)c2cc3ccc(Br)cc3[nH]2)CCN1 | < 4 | –
Cc1ccnc(NC(=O)c2[nH]nc(C(C)C)c2Br)c1 | < 4 | pIC50 (Plasmodium falciparum): 6.433; IC50 (Plasmodium falciparum): 0.23 µM; IC50 [8]: > 30.2 µM
Cl.Cl.c1cncc(OC[C@@H]2CCC[C@@]23CNCCO3)c1 | < 4 | –
Cc1ccsc1C(=O)N1CC(C(=O)N2CCOCC2)C2(CCOCC2)C1 (stereo not given) | < 4 | –
Cc1cc(-c2cnc(NC3CCCC3)nc2-c2ccoc2)on1 | < 4 | –
Cc1cnn(CC2CN(Cc3nnc(-c4occc4C)o3)CCO2)c1 (stereo not given) | < 4 | –
CCn1nc(C)c2ccn(CC(=O)NC3CCCC3)c(=O)c21 | < 4 | –
Cc1cc(-c2cnc(NC3CCCC3)nc2-c2ccco2)on1 | 4.667 and < 4.31 | –
O=C1CC2(CCN(Cc3ccc(-c4ccccc4)s3)C2)C(=O)N1 (stereo not given) | < 4 | –

From ChEMBL document CHEMBL3988442, “University of Dundee, Small-Polar-MMV Screening Library” (2021)
